# Data taken from US10227663B2, “Non-replicative transduction particles and transduction particle-based reporter systems” (priority 2013, dated 2019).
# Read-outs that look alike come from different tables or passages of the source.
# Assays:
# [1] = test system: cefoxitin resistant S. aureus (MRSA strains); experiment: MIC determination via plating on TSA plates containing cefoxitin; assay type: cell-based; conditions: Staphylococcus aureus
# Procedure: (§1) Overnight Culture: For each MRSA strain ([…] and S7) and a MSSA negative control strain (MSSA121), 2 mL of TSB were inoculated with a colony of the strain previously grown on TSA plates. Overnight MRSA cultures included 5 ug/mL cefoxitin. All samples were incubated overnight at 37° C. in a shaking incubator.
# (§2) Day Culture: 20 uL of each of the overnight cultures were transferred into a new culture tube containing 2 mL of Growth Media Reagent. The inoculums were then incubated at 37 C with shaking for approximately 1 hr 45 min, until the OD(600 nm) reached 0.1.
# a) Each of the day cultures was streaked onto TSA plates containing cefoxitin at 4, 8, 16, 32, 64, and 128 ug/mL.
# b) Plates were incubated for 18 hours at 37 C to determine growth.
# [2] = test system: cefoxitin resistant S. aureus (MRSA strains); experiment: NRTP-based cefoxitin susceptibility assay (luminescence); assay type: cell-based, Staphylococcus aureus
# Procedure: as §1, §2
# a) Wells of a white 96 well assay plate were filled with 100 uL of 2× Transduction Particle Reagent.
# b) For each of the day cultures, five wells were then filled with 100 uL of day culture.
# c) For each of the day cultures, cefoxitin was added to one well each such that the cefoxitin concentration in the well was at 4, 8, 16, 32, 64, and 128 ug/mL. […]
# At the end of 4 hours, the plate was remove from incubator and immediately measured for luminescence on a SpectraMax L that injected 50 μl of the Substrate Reagent and measured luminescence for a period of 1 minute.
# The maximum luminescence value after Substrate Reagent addition from each sample was plotted. MSSA sample RLU values were used to determine a Cutoff calculated using the following formula: (Mean MSSA RLU+3*SD MSSA RLU).
smiles,measurement,setting,value
CO[C@@]1(NC(=O)Cc2cccs2)C(=O)N2C(C(=O)O)=C(COC(N)=O)CS[C@@H]21 [cefoxitin],MIC,"[1]; MRSA / NRS 25, 18 h",128 µg/mL
same,MIC,"[1]; MRSA S7, TSA plates, 18 hours at 37 C, read-out: MIC",64 µg/mL
same,Cefoxitin concentration up to which luminescence was above the MSSA RLU cutoff,"[2]; MRSA NRS25, 4 hours at 37° C.",up to 64 ug/mL
same,Cefoxitin concentration up to which luminescence was above the MSSA RLU cutoff,"[2]; MRSA S7, 4 hours at 37° C.",up to 32 ug/mL
